# According to article PMC6015222, “Targeting Phosphopeptide Recognition by the Human BRCA1 Tandem BRCT Domain to Interrupt BRCA1-Dependent Signaling” (Cell Chemical Biology, 2018):
# Assays:
# MCPH1 tBRCT 2/3 = biological target: T1, MCPH1 tBRCT 2/3 (Homo sapiens, UniProt Q8NEM0); test: Competitive MST selectivity: MCPH1 tBRCT; assay type: binding
# T1 construct: MCPH1 tBRCT 2/3 residues 640-835; 6x His (N); made in house; host or cells: E. coli BL21(DE3)
# T1 sequence (Q8NEM0 640-835): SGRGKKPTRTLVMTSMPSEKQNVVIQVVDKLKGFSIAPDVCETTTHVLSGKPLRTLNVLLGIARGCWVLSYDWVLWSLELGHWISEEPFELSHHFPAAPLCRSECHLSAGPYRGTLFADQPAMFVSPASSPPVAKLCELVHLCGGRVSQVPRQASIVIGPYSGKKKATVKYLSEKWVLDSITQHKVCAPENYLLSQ
# Protocol: (§1) Protein domains used in the assay were labeled with NT-647-NHS fluorescent dye using the Monolith NT™ Protein Labeling Kit (NanoTemper Technologies). Assays were carried out in 20mM Tris buffer, pH 7.4, with 200mM NaCl, 0.05% Tween-20 and 2mM DTT. For the direct binding assay, 10μl of labeled protein at a final concentration of 20nM was mixed with 10μl of test compound and incubated on ice for 10 min. For the competitive assay, 10μl of labeled protein at a final concentration of 20nM was mixed with 2μM cognate peptide substrate at the EC80 concentration determined by prior titration using a 16-point serial dilution by direct-binding MST. For both assays, samples prepared as above were centrifuged at 15000 rpm at 4°C for 10 min and 4μl of the supernatant was loaded into premium glass capillaries (NanoTemper Technologies). MST analysis was performed at MST power of 40% and LED power of 80%, at 22°C temperature using a Monolith NT.115 (NanoTemper Technologies). An initial “Capillary Scan” was performed to scan for fluorescence across the length of the capillary tray to determine the exact position of each capillary before the MST measurement was started. Test compounds were assayed at 16 different concentrations by serial dilution, and data were analysed using NanoTemper analysis software. Kd values were determined using “T-jump + Thermophoresis” settings. […]
# TOPBP1 tBRCT 7/8 = biological target: T2, TOPBP1 tBRCT 7/8 (Homo sapiens, UniProt Q92547); test: Competitive MST selectivity: TOPBP1 7/8; assay type: binding
# T2 construct: TOPBP1 tBRCT 7/8 residues 1264–1493; made in house; host or cells: E. coli BL21(DE3*)
# T2 sequence (Q92547 1264-1493): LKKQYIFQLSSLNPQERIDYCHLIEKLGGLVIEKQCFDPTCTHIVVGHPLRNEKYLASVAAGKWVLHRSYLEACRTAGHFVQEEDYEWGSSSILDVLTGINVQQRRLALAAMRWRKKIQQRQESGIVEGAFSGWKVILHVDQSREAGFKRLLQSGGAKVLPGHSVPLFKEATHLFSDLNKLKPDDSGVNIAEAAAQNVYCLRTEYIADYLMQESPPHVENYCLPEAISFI
# Protocol: as §1
# ECT2 BRCT = biological target: T3, ECT2 BRCT (Homo sapiens, UniProt Q9H8V3); test: Competitive MST selectivity: ECT2; assay type: binding
# T3 construct: ECT2 BRCT residues 22-326; 6x His (N); made in house; host or cells: E. coli C41(DE3)
# T3 sequence (Q9H8V3 22-326 isoform Q9H8V3-4): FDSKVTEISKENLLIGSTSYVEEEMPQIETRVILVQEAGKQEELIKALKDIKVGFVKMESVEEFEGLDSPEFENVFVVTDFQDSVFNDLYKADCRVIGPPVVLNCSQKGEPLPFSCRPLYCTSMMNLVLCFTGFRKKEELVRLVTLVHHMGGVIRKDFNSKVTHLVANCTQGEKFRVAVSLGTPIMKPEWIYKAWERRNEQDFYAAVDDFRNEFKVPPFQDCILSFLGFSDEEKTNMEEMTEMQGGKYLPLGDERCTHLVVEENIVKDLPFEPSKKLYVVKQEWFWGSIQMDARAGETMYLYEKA
# Protocol: as §1
# TOPBP1 foci = test: Radiation-induced TOPBP1 foci, U2OS cells; assay type: cell-based; conditions: 100 μM added 6 h after irradiation
# HEK293 cells = test: Cell viability after 1 Gy irradiation (calcein AM dye and cell counting); assay type: cell-based, human; conditions: 1–100 μM added 1 hr before 1 Gy, viability 7 days later
# Protocol: HEK293 cells stably harboring plasmids for Tet-inducible expression of tBRCT domains were seeded at a density of 60,000 cells/35mm dish. Compound addition or inducible expression of BRCA1 tBRCT were performed as indicated, when cells were ∼30% confluent, before exposure to 1Gy irradiation. Cells were replenished with media every 3rd day for 7 days, re-suspended in cell dissociation buffer, which was neutralized in 1x PBS. Cells were mixed thoroughly to ensure single cell suspension before measurement of viability using Calcein AM dye and/or cell counting with a hemocytometer. Cell survival fractions were measured using fluorescence readout of Calcein AM with the Tecan Infinite M1000 Pro reader (485nm excitation and 515nm emission) and data were normalized to untreated controls across treatment groups.
# RAD51 foci = test: Radiation-induced nuclear RAD51 foci; assay type: cell-based, human; conditions: 100 μM, 16 Gy, as Figure 5A
# Protocol: HEK293 cells stably harboring plasmids for Tet-inducible expression of tBRCT domains were seeded at 30,000 cells/well on Matrigel-coated 96-well plates, and treated as indicated. Cells were fixed in 2.5% PFA, for 20’ at RT and incubated in 1x PBS with 10% FBS plus 0.5% TritonX-100 for 1 h for blocking and permeabilization. Primary antibody staining was performed at the indicated dilutions in PBST-BSA buffer (0.7mg/ml BSA, 0.05% Tween-20 in 1XPBS) for 1h at RT. Cells were then extensively washed in PBST-BSA buffer and stained with goat-anti-mouse Alexa 488 secondary antibody (Invitrogen), at 1:1000 dilution along with 2.5μg/ml DAPI for nuclear staining. […] Images were acquired on a high-content imaging platform (Cellomics ArrayScan VTI HCS Reader (Thermo Fisher Scientific)) using a 40x objective. On average ∼800 fields from 6-well replicates, containing a total of ∼10-20K cells were imaged per treatment group and quantified using image analysis software (in-house algorithms using MatLab and commercially available HCS studio 2.0 from Thermo Fisher Scientific). […] Cut-off values for foci number per cell specifying the maximal difference between control and irradiated samples were determined to calculate the percentage of cells positive for radiation-induced foci. […]
# cells = test: Cellular effects of Bractoppin, summary over the cell assays; assay type: cell-based
structure (smiles),measurement,setting,value
"O=C(c1ccc2nc(-c3ccccc3)[nH]c2c1)N1CCN(Cc2ccccc2F)CC1 [Bractoppin, (4-(2-fluorobenzyl)piperazin-1-yl) (2-phenyl-1H-benzo[d]imidazol-6-yl) methanone]",binding to fluorescently labeled MCPH1 tBRCT domain,MCPH1 tBRCT 2/3,does not detectably bind
same,binding to fluorescently labeled TOPBP1 7/8 tBRCT domain,TOPBP1 tBRCT 7/8,does not detectably bind
same,binding to fluorescently labeled ECT2 tBRCT domain,ECT2 BRCT,does not detectably bind
same,effect on radiation-induced recruitment of TOPBP1,TOPBP1 foci,little effect
same,effect on cytotoxicity induced by exposure to 1 Gy IR,HEK293 cells,significantly enhances cytotoxicity
same,effect on IR-induced RAD51 foci,RAD51 foci,selectively suppresses
same,concentration at which cellular effects are elicited,cells,10 to 100 µM
